# Key:
# Leishmania tropica = assay: Antileishmanial activity against Leishmania tropica MHOM/IT/2012/ISS3130 promastigotes assessed as inhibition of parasite growth after 72 hrs by MTT assay; type: functional, organism-based; settings: MHOM/IT/2012/ISS3130, 72 h
# [1] = Selectivity index, ratio of IC50 for HMEC1 to IC50 for Leishmania tropica MHOM/IT/2012/ISS3130
# Plasmodium falciparum [2] = assay: Antiplasmodial activity against chloroquine-sensitive Plasmodium falciparum D10 assessed as inhibition of parasite growth after 72 hrs by parasite lactate dehydrogenase assay; type: functional, organism-based; settings: D10, 72 h
# [3] = Selectivity index, ratio of IC50 for HMEC1 to IC50 for chloroquine-sensitive Plasmodium falciparum D10
# Plasmodium falciparum [4] = assay: Antiplasmodial activity against chloroquine-resistant Plasmodium falciparum W2 assessed as inhibition of parasite growth after 72 hrs by parasite lactate dehydrogenase assay; type: functional, organism-based; settings: W2, 72 h
# Plasmodium falciparum [5] = assay: Resistance index, ratio of IC50 for chloroquine-resistant Plasmodium falciparum W2 to IC50 for chloroquine-sensitive Plasmodium falciparum D10; type: functional
# [6] = Selectivity index, ratio of IC50 for HMEC1 to IC50 for chloroquine-resistant Plasmodium falciparum W2
# [7] = Cytotoxicity against HMEC1 cells after 72 hrs by MTT assay; type: cell-based; settings: Homo sapiens, HMEC-1, 72 h
# Leishmania infantum = assay: Antileishmanial activity against Leishmania infantum MHOM/TN/80/IPT1 promastigotes assessed as inhibition of parasite growth after 72 hrs by MTT assay; type: functional, organism-based; settings: MHOM/TN/80/IPT1, 72 h
# [8] = Selectivity index, ratio of IC50 for HMEC1 to IC50 for Leishmania infantum MHOM/TN/80/IPT1
# Leishmania braziliensis = assay: Antileishmanial activity against Leishmania braziliensis MHOM/IT/2006/ISS2848 promastigotes assessed as inhibition of parasite growth after 72 hrs by MTT assay; type: functional, organism-based; settings: MHOM/IT/2006/ISS2848, 72 h
# [9] = Selectivity index, ratio of IC50 for HMEC1 to IC50 for Leishmania braziliensis MHOM/IT/2006/ISS2848
structure (smiles),measurement,setting,value
Cl.c1ccc(Nc2cc3nc4ccccc4n(-c4ccccc4)c-3c/c2=N/CCN2CCCC2)cc1,IC50,Leishmania tropica,12300 nM
same,Ratio IC50,[1],0.1
same,IC50,Plasmodium falciparum [2],180 nM
same,Ratio IC50,[3],7.7
same,IC50,Plasmodium falciparum [4],110 nM
same,Ratio IC50,Plasmodium falciparum [5],0.6
same,Ratio IC50,[6],12.6
same,IC50,[7],1390 nM
c1ccc(Nc2cc3nc4ccccc4n(-c4ccccc4)c-3c/c2=N/CCC[C@@H]2CCCN3CCCC[C@H]23)cc1,IC50,Leishmania infantum,1590 nM
same,Ratio IC50,[8],2.8
same,IC50,Leishmania tropica,2700 nM
same,Ratio IC50,[1],1.7
same,IC50,Plasmodium falciparum [2],120 nM
same,Ratio IC50,[3],36.6
same,IC50,Plasmodium falciparum [4],63 nM
same,Ratio IC50,Plasmodium falciparum [5],0.5
same,Ratio IC50,[6],71.4
same,IC50,[7],4500 nM
Cl.Fc1ccc(Nc2cc3nc4ccccc4n(-c4ccc(F)cc4)c-3c/c2=N/CCCCCCC23CCCCN2CCCC3)cc1,IC50,Leishmania infantum,430 nM
same,Ratio IC50,[8],4.3
same,IC50,Leishmania tropica,330 nM
same,Ratio IC50,[1],5.5
same,IC50,Plasmodium falciparum [2],280 nM
same,Ratio IC50,[3],6.7
same,IC50,Plasmodium falciparum [4],340 nM
same,Ratio IC50,Plasmodium falciparum [5],1.2
same,Ratio IC50,[6],5.5
same,IC50,[7],1870 nM
Cl.c1ccc(-n2c3c/c(=N/CCCCC45CCCCN4CCCC5)c(Nc4cccnc4)cc-3nc3ccccc32)cc1,IC50,Leishmania infantum,6020 nM
same,Ratio IC50,[8],0.6
same,IC50,Leishmania tropica,2010 nM
same,Ratio IC50,[1],1.9
same,IC50,Plasmodium falciparum [2],280 nM
same,Ratio IC50,[3],13.9
same,IC50,Plasmodium falciparum [4],210 nM
same,Ratio IC50,Plasmodium falciparum [5],0.8
same,Ratio IC50,[6],18.5
same,IC50,[7],3890 nM
Cl.c1ccc(Nc2cc3nc4ccccc4n(-c4ccccc4)c-3c/c2=N/CCCCCCC23CCCCN2CCCC3)cc1,IC50,Leishmania infantum,230 nM
same,Ratio IC50,[8],5.4
same,IC50,Leishmania tropica,120 nM
same,Ratio IC50,[1],10.3
same,IC50,Leishmania braziliensis,140 nM
same,Ratio IC50,[9],8.9
same,IC50,Plasmodium falciparum [2],170 nM
same,Ratio IC50,[3],7.3
same,IC50,Plasmodium falciparum [4],210 nM
same,Ratio IC50,Plasmodium falciparum [5],1.2
same,Ratio IC50,[6],5.9
same,IC50,[7],1240 nM
CC(C)/N=c1\cc2n(-c3ccc(Cl)cc3)c3ccccc3nc-2cc1Nc1ccc(Cl)cc1 [CLOFAZIMINE],IC50,Leishmania infantum,4480 nM
same,Ratio IC50,[8],4.2
same,IC50,Leishmania tropica,2960 nM
same,Ratio IC50,[1],6.3
same,IC50,Plasmodium falciparum [2],4820 nM
same,Ratio IC50,[3],3.9
same,IC50,Plasmodium falciparum [4],7020 nM
same,Ratio IC50,Plasmodium falciparum [5],1.5
same,Ratio IC50,[6],2.6
same,IC50,[7],18600 nM
Cl.Clc1ccc(Nc2cc3nc4ccccc4n(-c4ccc(Cl)cc4)c-3c/c2=N/CCC23CCCN2CCC3)cc1,IC50,Leishmania infantum,300 nM
same,Ratio IC50,[8],3.3
same,IC50,Leishmania tropica,540 nM
same,Ratio IC50,[1],1.8
same,IC50,Plasmodium falciparum [2],190 nM
same,Ratio IC50,[3],5.2
same,IC50,Plasmodium falciparum [4],450 nM
same,Ratio IC50,Plasmodium falciparum [5],2.4
same,Ratio IC50,[6],2.2
same,IC50,[7],980 nM
Clc1ccc(Nc2cc3nc4ccccc4n(-c4ccc(Cl)cc4)c-3c/c2=N/C[C@@H]2CCCN3CCCC[C@H]23)cc1,IC50,Plasmodium falciparum [2],450 nM
same,IC50,Plasmodium falciparum [4],960 nM
same,Ratio IC50,Plasmodium falciparum [5],2.1
c1ccc(Nc2cc3nc4ccccc4n(-c4ccccc4)c-3c/c2=N/C[C@H]2CCCN3CCCC[C@H]23)cc1,IC50,Plasmodium falciparum [2],140 nM
same,IC50,Plasmodium falciparum [4],240 nM
same,Ratio IC50,Plasmodium falciparum [5],1.7
Cl.c1ccc(Nc2cc3nc4ccccc4n(-c4ccccc4)c-3c/c2=N/CCC23CCCN2CCC3)cc1,IC50,Leishmania infantum,910 nM
same,Ratio IC50,[8],2.1
same,IC50,Leishmania tropica,1100 nM
same,Ratio IC50,[1],1.7
same,IC50,Plasmodium falciparum [2],340 nM
same,Ratio IC50,[3],5.5
same,IC50,Plasmodium falciparum [4],290 nM
same,Ratio IC50,Plasmodium falciparum [5],0.9
same,Ratio IC50,[6],6.5
same,IC50,[7],1900 nM
C[N+]12CCCCC1(CCCC/N=c1/cc3n(-c4ccccc4)c4ccccc4nc-3cc1Nc1ccccc1)CCCC2.[I-] (stereo not drawn),IC50,Leishmania infantum,2670 nM
same,Ratio IC50,[8],4.1
same,IC50,Leishmania tropica,1090 nM
same,Ratio IC50,[1],10.1
same,IC50,Plasmodium falciparum [2],190 nM
same,Ratio IC50,[3],58.2
same,IC50,Plasmodium falciparum [4],270 nM
same,Ratio IC50,Plasmodium falciparum [5],1.4
same,Ratio IC50,[6],41
same,IC50,[7],11100 nM
CCN(CC)CCCC(C)Nc1ccnc2cc(Cl)ccc12 (stereo not drawn) [CHLOROQUINE],IC50,[7],> 38000 nM
C[C@@H]1[C@H](O)[C@@H](C)/C=C/C=C/C=C/C=C/C=C/C=C/C=C/[C@H](O[C@@H]2O[C@H](C)[C@@H](O)[C@H](N)[C@@H]2O)C[C@@H]2O[C@](O)(C[C@@H](O)C[C@@H](O)[C@H](O)CC[C@@H](O)C[C@@H](O)CC(=O)O[C@H]1C)C[C@H](O)[C@H]2C(=O)O [AMPHOTERICIN B],IC50,Leishmania infantum,80 nM
same,Ratio IC50,[8],321
same,IC50,Leishmania tropica,90 nM
same,Ratio IC50,[1],286
same,IC50,Leishmania braziliensis,90 nM
same,Ratio IC50,[9],286
same,IC50,[7],25700 nM
Cl.c1ccc(Nc2cc3nc4ccccc4n(-c4ccccc4)c-3c/c2=N/CCCCC23CCCCN2CCCC3)cc1,IC50,Leishmania infantum,370 nM
same,Ratio IC50,[8],3.3
same,IC50,Leishmania tropica,220 nM
same,Ratio IC50,[1],5.6
same,IC50,Leishmania braziliensis,170 nM
same,Ratio IC50,[9],7.2
same,IC50,Plasmodium falciparum [2],210 nM
same,Ratio IC50,[3],5.9
same,IC50,Plasmodium falciparum [4],270 nM
same,Ratio IC50,Plasmodium falciparum [5],1.3
same,Ratio IC50,[6],4.5
same,IC50,[7],1230 nM
Cc1ccc(Nc2cc3nc4ccccc4n(-c4ccc(C)cc4)c-3c/c2=N/C[C@@H]2CCCN3CCCC[C@H]23)cc1.Cl,IC50,Leishmania infantum,460 nM
same,Ratio IC50,[8],3.4
same,IC50,Leishmania tropica,470 nM
same,Ratio IC50,[1],3.3
same,IC50,Plasmodium falciparum [2],210 nM
same,Ratio IC50,[3],7.5
same,IC50,Plasmodium falciparum [4],400 nM
same,Ratio IC50,Plasmodium falciparum [5],1.9
same,Ratio IC50,[6],3.9
same,IC50,[7],1570 nM
CN(C)CCC/N=c1/cc2n(-c3ccc(Cl)cc3)c3ccccc3nc-2cc1Nc1cccnc1,IC50,Leishmania infantum,410 nM
same,Ratio IC50,[8],11.4
same,IC50,Leishmania tropica,770 nM
same,Ratio IC50,[1],6.1
same,IC50,Plasmodium falciparum [2],400 nM
same,Ratio IC50,[3],11.7
same,IC50,Plasmodium falciparum [4],280 nM
same,Ratio IC50,Plasmodium falciparum [5],0.7
same,Ratio IC50,[6],16.6
same,IC50,[7],4660 nM
Cl.Fc1ccc(Nc2cc3nc4ccccc4n(-c4ccc(F)cc4)c-3c/c2=N/CCCCC23CCCCN2CCCC3)cc1,IC50,Leishmania infantum,480 nM
same,Ratio IC50,[8],4.1
same,IC50,Leishmania tropica,840 nM
same,Ratio IC50,[1],2.3
same,IC50,Plasmodium falciparum [2],240 nM
same,Ratio IC50,[3],8.2
same,IC50,Plasmodium falciparum [4],390 nM
same,Ratio IC50,Plasmodium falciparum [5],1.6
same,Ratio IC50,[6],5
same,IC50,[7],1960 nM
Cl.Clc1ccc(-n2c3c/c(=N/CCCCC45CCCCN4CCCC5)c(Nc4cccnc4)cc-3nc3ccccc32)cc1,IC50,Leishmania infantum,340 nM
same,Ratio IC50,[8],6.9
same,IC50,Leishmania tropica,340 nM
same,Ratio IC50,[1],6.9
same,IC50,Plasmodium falciparum [2],220 nM
same,Ratio IC50,[3],10.6
same,IC50,Plasmodium falciparum [4],180 nM
same,Ratio IC50,Plasmodium falciparum [5],0.8
same,Ratio IC50,[6],12.9
same,IC50,[7],2330 nM
COc1ccc(Nc2cc3nc4ccccc4n(-c4ccccc4)c-3c/c2=N/CCCCC23CCCCN2CCCC3)cn1.Cl,IC50,Leishmania infantum,4440 nM
same,Ratio IC50,[8],1.4
same,IC50,Leishmania tropica,2320 nM
same,Ratio IC50,[1],2.7
same,IC50,Plasmodium falciparum [2],810 nM
same,Ratio IC50,[3],7.8
same,IC50,Plasmodium falciparum [4],350 nM
same,Ratio IC50,Plasmodium falciparum [5],0.4
same,Ratio IC50,[6],18.1
same,IC50,[7],6320 nM
Cl.c1ccc(Nc2cc3nc4ccccc4n(-c4ccccc4)c-3c/c2=N/CC23CCCN2CCC3)cc1,IC50,Leishmania tropica,9850 nM
same,Ratio IC50,[1],0.3
same,IC50,Plasmodium falciparum [2],640 nM
same,Ratio IC50,[3],4.1
same,IC50,Plasmodium falciparum [4],440 nM
same,Ratio IC50,Plasmodium falciparum [5],0.7
same,Ratio IC50,[6],6
same,IC50,[7],2650 nM
c1ccc(Nc2cc3nc4ccccc4n(-c4ccccc4)c-3c/c2=N/CC[C@@H]2CCCN3CCCC[C@H]23)cc1,IC50,Plasmodium falciparum [2],180 nM
same,IC50,Plasmodium falciparum [4],270 nM
same,Ratio IC50,Plasmodium falciparum [5],1.5
c1ccc(Nc2cc3nc4ccccc4n(-c4ccccc4)c-3c/c2=N/C[C@@H]2CCCN3CCCC[C@H]23)cc1,IC50,Plasmodium falciparum [2],370 nM
same,IC50,Plasmodium falciparum [4],810 nM
same,Ratio IC50,Plasmodium falciparum [5],2.2
Cl.Fc1ccc(Nc2cc3nc4ccccc4n(-c4ccc(F)c(Cl)c4)c-3c/c2=N/CCCCCCC23CCCCN2CCCC3)cc1Cl,IC50,Leishmania infantum,350 nM
same,Ratio IC50,[8],3.9
same,IC50,Leishmania tropica,240 nM
same,Ratio IC50,[1],5.5
same,IC50,Plasmodium falciparum [2],310 nM
same,Ratio IC50,[3],4.4
same,IC50,Plasmodium falciparum [4],570 nM
same,Ratio IC50,Plasmodium falciparum [5],1.9
same,Ratio IC50,[6],2.4
same,IC50,[7],1350 nM
Cl.Clc1ccc(Nc2cc3nc4ccccc4n(-c4ccc(Cl)cc4)c-3c/c2=N/CC23CCCN2CCC3)cc1,IC50,Leishmania tropica,7440 nM
same,Ratio IC50,[1],0.5
same,IC50,Plasmodium falciparum [2],620 nM
same,Ratio IC50,[3],5.8
same,IC50,Plasmodium falciparum [4],750 nM
same,Ratio IC50,Plasmodium falciparum [5],1.2
same,Ratio IC50,[6],4.8
same,IC50,[7],3570 nM

# — ChEMBL document CHEMBL3351819, “Clofazimine analogs with antileishmanial and antiplasmodial activity” (Bioorg Med Chem, 2015)
